The values below come from ChEMBL document CHEMBL1201862, “PubChem BioAssay data set” (2004).

The structures appear in SMILES notation. Calls of active or inactive are those of the source.

The EC50 is the concentration at which the effect is half-maximal. The AC50 is the concentration giving half of the maximal activity seen. The IC50 is the concentration needed to halve the response being measured. By CC50 is commonly meant the concentration at which the toxic effect on the cells reaches its halfway point.

Assay [1] in a line: luciferase reporter signal suppression in cells – H4 neuroglioma cells, luminescence, dose response (AID 1990). The class given is functional, cell-based. In general terms: Reporter assays use an easily measured gene product as a stand-in for the process of interest.
Assay [2] is described as follows: luciferase reporter signal reduction – luminescence, H4-C neuroglioblastoma cells, dose response (AID 2458).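 Also: H4 neuroglioblastoma cells stably carrying a luciferase reporter gene fusion.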 It counts as functional, cell-based.
Assay [3] in a line: cells. The class given is functional, cell-based.
Assay [4] can be described thus: Luminescence Cell-Based Dose Response HTS to Identify Inhibitors of 5'UTR Stem-Loop Driven Prion Protein mRNA Translation in H4 Neuroglioblastoma Cells. [Related pubchem assays: 1827 (Project Summary), 1813 (Primary HTS)]. The class given is functional.
Assay [5] in a line: alpha-synuclein stem-loop luciferase translation blockers – H4 neuroglioma cells, luminescence, confirmation (AID 1988). It counts as functional, cell-based.
Assay [6] can be described thus: alpha-synuclein stem-loop translation blockers – luminescence, H4 neuroglioblastoma cells, dose confirmation, confirmation (AID 2454).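 Also: H4 neuroglioblastoma cells carrying an alpha-synuclein 5'UTR luciferase reporter; potency for inhibition of the luciferase signal.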 It counts as functional, cell-based.
For assay [7], the target named is T1, Microphthalmia-associated transcription factor (Homo sapiens, UniProt O75030).
T1 sequence (O75030 whole entry): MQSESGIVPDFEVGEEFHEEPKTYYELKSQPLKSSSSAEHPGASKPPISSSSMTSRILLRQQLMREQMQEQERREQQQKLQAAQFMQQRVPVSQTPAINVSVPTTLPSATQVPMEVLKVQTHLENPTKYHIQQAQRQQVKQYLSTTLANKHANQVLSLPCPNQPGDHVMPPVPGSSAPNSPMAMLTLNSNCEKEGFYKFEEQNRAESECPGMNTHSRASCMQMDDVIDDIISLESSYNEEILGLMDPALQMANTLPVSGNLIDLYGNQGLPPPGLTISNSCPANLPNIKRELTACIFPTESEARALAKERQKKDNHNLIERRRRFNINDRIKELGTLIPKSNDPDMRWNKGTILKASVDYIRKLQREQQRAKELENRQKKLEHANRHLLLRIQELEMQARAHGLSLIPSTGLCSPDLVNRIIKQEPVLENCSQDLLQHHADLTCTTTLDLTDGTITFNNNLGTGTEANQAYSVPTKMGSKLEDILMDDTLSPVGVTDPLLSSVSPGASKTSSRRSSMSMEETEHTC
The assay can be described thus: reducers of TRPM1 reporter luminescence, concentration series – cell-based, SK-MEL-5, cherry-picked, set 3, MITF inhibitor project, dose response (AID 493073).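 Also: SK-MEL-5 melanoma cells with luciferase driven by the MITF target TRPM1 promoter.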 The class given is functional.

The target of assay [8] is Delta-type opioid receptor (Homo sapiens, UniProt P41143). Briefly: Counterscreen for agonists of heterodimerization of the mu 1 (OPRM1) and delta 1 (OPRD1) opioid receptors: Luminescence-based cell-based high throughput dose response assay to identify agonists of OPRD1 homodimerization. [Related pubchem assays (depositor defined):AID504326, AID504355, AID504692, AID504904, AID504905]. It counts as functional.

In assay [9] the target is Mu-type opioid receptor (Homo sapiens, UniProt P35372). Briefly: Counterscreen for agonists of heterodimerization of the mu 1 (OPRM1) and delta 1 (OPRD1) opioid receptors: Luminescence-based cell-based high throughput dose response assay to identify agonists of OPRM1 homodimerization. It counts as functional. On the technique in general: The purpose of a counterscreen is to sort out artefacts and off-target activity.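 Also: U2OS cells expressing OPRM1 and beta-arrestin as split beta-galactosidase partners.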

The target in assay [10] is 5-hydroxytryptamine receptor 5A (Homo sapiens, UniProt P47898). The assay can be described thus: Counterscreen for agonists of OPRM1-OPRD1 heterodimerization: luminescence-based cell-based high throughput dose response assay to identify agonists of 5-hydroxytryptamine (serotonin) 5A receptor (HTR5A). [Related pubchem assays (depositor defined):AID504326, AID504355, AID504692, AID504904, AID504905]. The class given is functional.

The nature of assay [11]: A549 cell cytotoxicity, dose response, cytotoxicity control, plate reader, cherry-pick, antagonist series (AID 743412). It counts as functional, cell-based.
The nature of assay [12]: toxicity toward HepG2 liver cells – cell-based, plate reader, cherry-pick, antagonist series, cytotoxicity control, dose response (AID 743416). It counts as functional.
Assay [13] is described as follows: blockers of bursicon-stimulated LGR2 cAMP reporter – cell-based, HEK293, CRE-luciferase reporter, cherry pick, set 2, dose response (AID 743343).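 Also: transfected cells were stimulated with diluted bursicon conditioned medium after compound addition.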 It counts as functional.
Assay [14] is described as follows: blockade of melanocortin 4 receptor signaling – cell-based, plate reader, cherry pick, counter-screen for LGR2 antagonist project, dose response (AID 743444).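 Also: transfected HEK 293 cells stimulated with alpha-MSH peptide; potency of inhibitors of the alpha-MSH evoked signal.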 It counts as functional.
Assay [15] in a line: viability loss in HEK293 cells – cell-based, plate reader, cherry-picked samples, cytotoxicity control, dose response (AID 743446). It counts as functional.
The test system of assay [16] is BJ. The assay can be described thus: BJ-TERT fibroblast viability loss – cell-based, RAS-independent, luminescence, dose response (AID 1933). It counts as functional. The note with it: Homo sapiens.
The subject of assay [17] is BJ. Briefly: cells. The conditions noted are these: Homo sapiens. The class given is functional, cell-based.
Assay [18] deals with BJ. The assay can be described thus: BJ-TERT-LT-ST fibroblast viability loss – cell-based, RAS-independent, luminescence, dose response (AID 1935).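 Also: BJ fibroblasts immortalized with TERT plus LT and ST oncogenes.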 It counts as functional. The note with it: Homo sapiens.
A short description of assay [19]: DRD fibroblast viability loss – cell-based, non-viral oncogenic, luminescence, dose response (AID 1934). The class given is functional. The conditions noted are these: Homo sapiens.
Assay [20] has as its system BJ. The assay can be described thus: growth inhibition of engineered Ras-driven BJ cells – cell-based, alamar blue fluorescence, cherrypicked samples, dose response (AID 2631).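 Also: confirmatory dose-response assay in RAS-dependent BJ fibroblasts engineered with TERT, LT and ST, with cytotoxicity read by fluorescence.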 The class given is functional. The conditions noted are these: Homo sapiens. On the technique in general: The colour change of resazurin is a common sign of viable cells or microbes.
Assay [21] has as its target Glucose-6-phosphate 1-dehydrogenase (Homo sapiens, UniProt P11413). The assay can be described thus: inhibition of Homo sapiens G6PD, dose series – biochemical, fluorescence, selectivity assay for P. falciparum G6PD inhibitor project, dose response (AID 504792). The class given is functional.
Assay [22] has as its target Heat shock protein HSP 90-alpha (Homo sapiens, UniProt P07900). It counts as functional, organism-based.
Assay [23] has as its system Vero. The assay can be described thus: viability of Vero cells under compound – cytotoxicity control for flavivirus capping enzyme inhibitors (AID 588742). The class given is functional. The conditions noted are these: Chlorocebus sabaeus.
In assay [24] the target is Beta-arrestin-1 (Homo sapiens, UniProt P49407). The assay can be described thus: beta-arrestin/AP2 interaction blockers, potency – biochemical, cherry pick 1, beta2-adaptin appendage, flow cytometry, dose response (AID 588783). The class given is functional.
The subject of assay [25] is Vero. The assay can be described thus: cells. It counts as functional. The note with it: Chlorocebus sabaeus.
Assay [26] addresses Genome polyprotein (dengue virus type 2, UniProt P29990). Briefly: flavivirus cap methylation enzyme inhibition – biochemical, confirmation dose response, primary screen (AID 588689). The class given is functional.
For assay [27], the target named is T2, Short transient receptor potential channel 4 (Mus musculus, UniProt Q9QUQ5).
T2 sequence (Q9QUQ5 whole entry): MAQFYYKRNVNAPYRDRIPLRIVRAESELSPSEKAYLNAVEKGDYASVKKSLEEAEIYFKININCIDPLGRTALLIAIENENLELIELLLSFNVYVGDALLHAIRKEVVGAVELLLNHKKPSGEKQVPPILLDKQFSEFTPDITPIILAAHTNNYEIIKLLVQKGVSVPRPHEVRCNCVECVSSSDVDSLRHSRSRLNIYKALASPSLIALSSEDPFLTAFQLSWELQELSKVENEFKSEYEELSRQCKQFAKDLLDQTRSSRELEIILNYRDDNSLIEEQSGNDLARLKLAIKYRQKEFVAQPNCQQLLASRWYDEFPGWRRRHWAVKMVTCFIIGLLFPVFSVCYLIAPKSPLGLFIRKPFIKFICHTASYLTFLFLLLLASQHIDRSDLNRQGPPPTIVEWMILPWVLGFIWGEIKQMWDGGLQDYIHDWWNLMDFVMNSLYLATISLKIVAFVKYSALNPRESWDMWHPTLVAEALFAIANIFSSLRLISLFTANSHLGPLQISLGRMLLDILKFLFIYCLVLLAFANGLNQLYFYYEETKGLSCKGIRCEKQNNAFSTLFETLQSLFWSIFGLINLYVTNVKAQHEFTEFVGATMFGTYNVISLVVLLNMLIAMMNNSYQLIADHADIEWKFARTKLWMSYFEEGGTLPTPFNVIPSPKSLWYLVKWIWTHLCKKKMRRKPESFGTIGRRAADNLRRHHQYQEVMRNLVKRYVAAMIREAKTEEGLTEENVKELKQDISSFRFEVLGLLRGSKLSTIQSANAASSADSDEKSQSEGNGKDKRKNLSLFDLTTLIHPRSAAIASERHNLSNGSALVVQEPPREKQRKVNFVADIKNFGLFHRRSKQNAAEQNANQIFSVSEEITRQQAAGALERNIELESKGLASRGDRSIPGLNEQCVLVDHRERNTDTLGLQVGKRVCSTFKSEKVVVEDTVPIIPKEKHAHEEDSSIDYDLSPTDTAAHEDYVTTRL
Briefly: potency of mouse TRPC4 calcium flux blockers – cell-based, HEK293 TRPC4/mu-opioid, DAMGO stimulus, Fluo-4, dose response (AID 492994). It counts as functional.

Assay [28] can be described thus: Luminescence Cell-Based Dose Response HTS to Identify Activators of Luciferase Translation or Activity in H4 […] Cells. [Related pubchem assays: 1829 (Project Summary), 1814 (Primary HTS)]. The class given is functional.
For assay [29], the system named is H4. Briefly: Luminescence Cell-Based Dose Response HTS to Identify Activators of 5'UTR Stem-Loop Driven Prion Protein mRNA Translation in H4 Neuroglioblastoma Cells. [Related pubchem assays: 1829 (Project Summary), 1814 (Primary HTS)]. The conditions noted are these: Homo sapiens. The class given is functional.
The subject of assay [30] is HEK293. The assay can be described thus: cells. The note with it: Homo sapiens. The class given is functional, cell-based.
Assay [31] concerns the target T3, Nuclear receptor subfamily 0 group B member 1 (Homo sapiens, UniProt P51843).
T3 sequence (P51843 whole entry): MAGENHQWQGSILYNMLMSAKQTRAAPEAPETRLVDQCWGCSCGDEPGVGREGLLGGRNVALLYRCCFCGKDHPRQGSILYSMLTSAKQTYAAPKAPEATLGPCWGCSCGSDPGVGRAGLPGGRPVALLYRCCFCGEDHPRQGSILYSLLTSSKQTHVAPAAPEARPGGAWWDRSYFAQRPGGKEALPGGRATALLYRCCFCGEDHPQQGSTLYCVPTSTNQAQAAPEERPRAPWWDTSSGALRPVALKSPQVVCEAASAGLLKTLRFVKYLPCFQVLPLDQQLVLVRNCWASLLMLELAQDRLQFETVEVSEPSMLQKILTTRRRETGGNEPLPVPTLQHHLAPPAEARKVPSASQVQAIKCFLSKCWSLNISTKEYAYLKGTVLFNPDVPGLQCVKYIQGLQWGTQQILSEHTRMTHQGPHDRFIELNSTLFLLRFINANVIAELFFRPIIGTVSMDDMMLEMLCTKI
The assay can be described thus: Luminescence-based cell-based high throughput dose response assay for inhibitors of the orphan nuclear receptor subfamily 0, group B, member 1 (DAX1; NR0B1). [Related pubchem assays (depositor defined):AID504766, AID504790]. The class given is functional.

Chain of Beta-arrestin-1 (P49407 whole entry): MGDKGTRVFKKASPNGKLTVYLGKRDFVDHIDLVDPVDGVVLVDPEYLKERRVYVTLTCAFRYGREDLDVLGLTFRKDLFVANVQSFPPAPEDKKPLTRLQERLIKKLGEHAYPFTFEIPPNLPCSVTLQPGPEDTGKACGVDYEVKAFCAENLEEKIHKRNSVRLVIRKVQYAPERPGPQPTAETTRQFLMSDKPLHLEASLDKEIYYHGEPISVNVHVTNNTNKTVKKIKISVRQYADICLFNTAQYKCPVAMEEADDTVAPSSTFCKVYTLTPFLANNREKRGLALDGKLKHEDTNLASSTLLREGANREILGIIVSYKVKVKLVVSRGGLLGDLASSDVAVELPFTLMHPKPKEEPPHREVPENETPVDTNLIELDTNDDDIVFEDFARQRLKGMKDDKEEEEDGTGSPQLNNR
Chain of Mu-type opioid receptor (P35372 whole entry): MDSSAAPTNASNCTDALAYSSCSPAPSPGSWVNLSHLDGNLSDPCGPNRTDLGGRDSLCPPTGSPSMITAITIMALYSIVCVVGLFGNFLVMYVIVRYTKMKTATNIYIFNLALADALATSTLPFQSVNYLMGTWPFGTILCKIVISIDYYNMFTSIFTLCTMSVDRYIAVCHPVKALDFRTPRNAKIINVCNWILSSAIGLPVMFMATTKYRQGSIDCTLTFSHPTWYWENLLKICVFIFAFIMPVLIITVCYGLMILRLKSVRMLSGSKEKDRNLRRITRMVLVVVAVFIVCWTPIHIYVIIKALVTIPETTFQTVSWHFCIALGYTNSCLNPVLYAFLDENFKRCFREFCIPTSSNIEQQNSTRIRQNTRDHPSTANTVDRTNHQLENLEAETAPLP
Chain of Glucose-6-phosphate 1-dehydrogenase (P11413 whole entry): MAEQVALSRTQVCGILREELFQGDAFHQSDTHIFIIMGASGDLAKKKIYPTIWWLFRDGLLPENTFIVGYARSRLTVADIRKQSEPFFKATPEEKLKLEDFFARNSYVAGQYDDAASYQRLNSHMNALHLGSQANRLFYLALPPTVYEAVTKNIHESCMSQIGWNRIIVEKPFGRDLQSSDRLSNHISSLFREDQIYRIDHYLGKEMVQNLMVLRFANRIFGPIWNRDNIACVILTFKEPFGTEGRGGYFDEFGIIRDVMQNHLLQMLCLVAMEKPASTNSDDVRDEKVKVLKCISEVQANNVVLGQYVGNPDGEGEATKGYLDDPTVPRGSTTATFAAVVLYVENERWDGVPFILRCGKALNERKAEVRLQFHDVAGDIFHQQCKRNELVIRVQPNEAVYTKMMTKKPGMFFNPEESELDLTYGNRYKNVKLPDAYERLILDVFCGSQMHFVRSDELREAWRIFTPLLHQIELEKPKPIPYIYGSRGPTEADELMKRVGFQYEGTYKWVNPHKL
Chain of Genome polyprotein (P29990 2492-3391 limits assumed): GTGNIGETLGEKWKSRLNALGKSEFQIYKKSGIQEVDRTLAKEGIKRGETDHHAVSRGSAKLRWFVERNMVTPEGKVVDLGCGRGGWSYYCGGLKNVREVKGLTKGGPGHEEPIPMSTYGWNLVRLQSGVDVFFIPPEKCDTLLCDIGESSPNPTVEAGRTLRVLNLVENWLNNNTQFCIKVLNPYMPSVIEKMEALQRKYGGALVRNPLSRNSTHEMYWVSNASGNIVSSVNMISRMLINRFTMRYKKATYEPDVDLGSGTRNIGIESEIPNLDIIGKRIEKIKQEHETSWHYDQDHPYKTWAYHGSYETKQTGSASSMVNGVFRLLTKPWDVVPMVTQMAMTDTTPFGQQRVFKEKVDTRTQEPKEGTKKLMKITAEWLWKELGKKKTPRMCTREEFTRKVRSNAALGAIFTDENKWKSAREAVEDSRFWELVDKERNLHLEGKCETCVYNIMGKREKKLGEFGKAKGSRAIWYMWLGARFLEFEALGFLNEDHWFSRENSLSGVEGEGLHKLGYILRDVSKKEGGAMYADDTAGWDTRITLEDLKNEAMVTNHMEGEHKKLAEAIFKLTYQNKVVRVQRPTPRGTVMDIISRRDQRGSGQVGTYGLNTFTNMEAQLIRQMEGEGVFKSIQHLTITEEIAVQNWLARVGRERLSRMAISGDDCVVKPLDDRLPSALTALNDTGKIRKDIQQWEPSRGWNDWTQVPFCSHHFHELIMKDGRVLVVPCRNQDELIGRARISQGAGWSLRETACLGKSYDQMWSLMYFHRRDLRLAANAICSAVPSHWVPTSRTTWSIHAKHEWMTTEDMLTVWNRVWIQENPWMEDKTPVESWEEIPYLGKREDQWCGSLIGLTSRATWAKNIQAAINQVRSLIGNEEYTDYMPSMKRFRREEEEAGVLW
Chain of 5-hydroxytryptamine receptor 5A (P47898 whole entry): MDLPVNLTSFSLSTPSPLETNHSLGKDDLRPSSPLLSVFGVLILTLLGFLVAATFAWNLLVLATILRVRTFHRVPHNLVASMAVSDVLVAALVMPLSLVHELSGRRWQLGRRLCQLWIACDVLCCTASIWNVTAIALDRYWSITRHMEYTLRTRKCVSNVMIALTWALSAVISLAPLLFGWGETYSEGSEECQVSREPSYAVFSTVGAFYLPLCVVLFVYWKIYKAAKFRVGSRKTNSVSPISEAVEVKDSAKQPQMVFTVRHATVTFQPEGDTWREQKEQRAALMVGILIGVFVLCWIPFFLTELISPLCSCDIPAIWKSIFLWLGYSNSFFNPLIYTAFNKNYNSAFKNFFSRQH
Chain of Delta-type opioid receptor (P41143 whole entry): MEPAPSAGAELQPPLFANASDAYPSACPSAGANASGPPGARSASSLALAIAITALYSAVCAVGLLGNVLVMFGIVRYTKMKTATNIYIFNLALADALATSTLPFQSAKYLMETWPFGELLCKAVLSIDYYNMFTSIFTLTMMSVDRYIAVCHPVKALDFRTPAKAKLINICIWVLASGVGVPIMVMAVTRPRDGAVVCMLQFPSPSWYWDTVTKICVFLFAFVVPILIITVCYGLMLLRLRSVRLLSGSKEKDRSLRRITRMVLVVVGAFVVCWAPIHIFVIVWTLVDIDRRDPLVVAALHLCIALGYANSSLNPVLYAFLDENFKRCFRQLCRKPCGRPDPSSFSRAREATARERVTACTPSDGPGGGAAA

Regarding `CC(=O)CSc1ccc(-c2nc3cc(C)c(C)cc3[nH]2)cn1`, the EC50 in [1] is 0.113 µM (active); in assay [2], 0.837 µM (active); in assay [3], > 12 µM (inconclusive); in assay [4] it was 12.8 µM (active); in assay [5] it was < 0.1 µM (active); in [6], 1 µM (active). The figures for the EC50 in assay [8], in assay [9] and in assay [10] were > 92.5 µM (inactive), 44.8 µM (inactive) and > 92.5 µM (inactive), respectively. Also, the AC50 is 3.67 µM (active) in assay [7]; > 52 µM (inactive) in [11]; > 52 µM (inactive) in [12]; 0.82 µM (active) in assay [13]; 1.11 µM (active) in assay [14]; 34.7 µM (active) in assay [15].
Take `Cc1ccnc(NC(=O)c2ccccc2NC(=O)c2ccc(Cl)cc2Cl)c1`: the concentration for a half-maximal effect (EC50) in assay [1] is 10.6 µM (inconclusive); in assay [16] it was 2.87 µM (active); in assay [4] it was > 120 µM (not active); in assay [5], > 120 µM (not active); in assay [17], 34.8 µM (inconclusive); in assay [18], 4.38 µM (active). Also, the EC50 was 2.83 µM (active) in assay [19] and 0.573 µM (active) in [20].
`Cn1c2ccccc2c2ccc3c(c21)C(=O)C=CC3=O`: the IC50 is > 80 µM (inactive) in [21], 4.59 µM (active) in assay [24] and 15.8 µM (active) in assay [26]. In addition, the AC50 in [22] was 8.99 µM (active). Moreover, the CC50 in assay [23] was 29.2 µM (active); in assay [25], 12.6 µM (active).
As for `Cc1cc(N2CCN(c3ncccn3)CC2)nc2ccccc12`, the IC50 in assay [27] is 469 µM (active).
On to `Clc1ccc(/C=N/Nc2ncnc3ccccc23)cc1Cl`, for which the results for the EC50 in assay [28] and in assay [29] were 0.181 µM (active) and 7.13 µM (active), respectively. The IC50 in [30] and in assay [31] was > 67.5 µM (inactive) in each case.
